The NIST ThermoML archive (doi:10.1021/je030177j)

Conditions: Liquid, Capillary tube (Ostwald / Ubbelohde) method

O [water]
viscosity [mPa·s]
Conditions	297.88 K	319.09 K	340.98 K	370.39 K	408.77 K	447.38 K	483.66 K	538.57 K	574.32 K
10000 kPa	0.893	0.5912	0.4195	0.2947	0.206	0.1576	0.129	0.1005	0.0866
20000 kPa	0.8933	0.589	0.4232	0.2976	0.2107	0.161	0.1314	0.1027	0.0903
30000 kPa	0.8935	0.5978	0.4275	0.3012	0.2132	0.1637	0.134	0.1058	0.0932
